Holding throughout (type): in vivo, BALB/c mice
The nature of data set [1]: Test Method A: body weight of the treated mice. The note with it: 100 µg/mouse intratumorally once daily Day 1 to Day 4; for Body weight of mice (g) Day 0 *d: initial day. As for the experimental part:
Groups of six female BALB/c mice, aged 12 weeks and weighing 19 - 21 g were used. Test compound was dissolved in 0.5% methylcellulose saline solution, and was intratumorally injected to each of the mice in doses of 100 µg/mouse once daily from Day 1 to Day 4 postimplant. Body weight was checked on initial day and Day 4.

In a further data set the test system is Fibrosarcoma Meth-A. The data set can be described thus: Test Method A: antitumor effect on intradermally inoculated Meth-A tumor, intratumoral injection of test compound. The conditions noted are these: 100 µg/mouse intratumorally once daily Day 1 to Day 4; for Tumor growth inhibition (%) *b: (1-T/C)x100 of mean tumor diameter on Day 21; for Mean tumor size (mm) *a: female BALB/c mice, 1 x 10^5 Meth-A cells intradermally, mean diameter of tumor on Day 21; for Ratio of tumor free mice *c: groups of six mice.

A further data set concerns Fibrosarcoma Meth A. The data set can be described thus: Test Method B: survival of mice inoculated intrapleurally with Meth A, injection of test compound into pleural cavity. Further details: dose or concentration left out as unconfirmed. The conditions noted are these: for Anti-tumor activity (%) *f: T/C x 100 of mean survival time, into pleural cavity three times; for Mean survival time: female BALB/c mice, Meth A cells intrapleurally, into pleural cavity three times (before 14 days, after 1 hour, after 3 days of tumor implantation).

Method for Fibrosarcoma Meth A: Groups of eight female BALB/c mice, aged 8-9 weeks and weighing 18.0-22.5 g were used.
Fibrosarcoma Meth A (hereinafter referred to as Meth A) was successively transferred every 7 days into BALB/c mice by intraperitoneal inoculation of the ascites cells thereof and the Meth A in the ascites cells as harvested 6 or 7 days after the inoculation was used as tumor cells.
Each of the BALB/c mice was inoculated intrapleurally with 5 x 10 Meth A cells in 0.1 ml Hanks solution.
Test compound was dissolved in phosphate buffer saline solution, and was injected into pleural cavity to each of the mice in doses of 100 pg/0.05 ml/mouse three times, i.e. before 14 days, after I hour and after 3 days of tumor implantation.
(§1) The control group was given with a vehicle alone in the same way.
The antitumor activity of the test compound was estimated by comparing mean survival time of the two groups. • T : Mean survival time of the medicated group • C : Mean survival time of the control group
Method for Fibrosarcoma Meth-A: Fibrosarcoma Meth-A (hereinafter referred to as Meth-A) was successively transferred every 7 days into BALB/c mice by intraperitoneal inoculation of the ascites cells thereof and the Meth-A in the ascites cells as harvested 6 days after the inoculation was used as tumor cells.
Each of the BALB/c mice was inoculated intradermally with 1 x 10^5 Meth-A cells in 0.05 ml Hanks solution.
as §1
The antitumor effectiveness of the test compound was estimated by tumor growth inhibition : (1-T/C)x100. • T : Mean diameter of the growing tumor of the medicated group on Day 21. • C : Mean diameter of the growing tumor of the control group on Day 21.

On to `CCCCCCCCCCCCCCCCCCOCC(COP(=O)([O-])OCC[n+]1ccccc1)OC(=O)NC` (racemic) [Example 1 - (4), (rac)-1-O-octadecyl-2-O-methylcarbamoyl-glycerol-3-[2-(1-pyridinio)ethyl]-phosphate], for which, in data set [1], the “Body weight of mice (g) Day 4 *e” value came out at 19.1 ± 1.68 g and the “Body weight of mice (g) Day 0 *d” value amounted to 18.3 ± 1.11 g. Moreover, in the data set on Fibrosarcoma Meth-A, the “Tumor growth inhibition (%) *b” value came to 100%, the “Mean tumor size (mm) *a” value worked out at 0 mm and the “Ratio of tumor free mice *c” value is 6/6.
Take `CCCCCCCCCCCCCCCCCCOCC(COP(=O)([O-])OCC[n+]1ccccc1)OC(=O)Nc1ccccc1` (racemic) [Example 2 - (4), (rac)-1-O-Octadecyl-2-O-phenylcarbamoyl-glycerol-3-[2-(l-pyridinio)ethyl]phosphate]: in the data set on Fibrosarcoma Meth A, the “Anti-tumor activity (%) *f” value stood at 117% and the “Mean survival time” value stood at 7.0 days.
For the compound `CCCCCCCCCCCCCCCCCCOCC(COP(=O)([O-])OCC[n+]1ccccc1)OC(N)=O` (racemic) [Example 3 - (4), (rac)-1-O-0ctadecyl-2-O-carbamoyl-glycerol-3-[2-(1-pyridinio)ethyl]phosphate], in the data set on Fibrosarcoma Meth A, the “Anti-tumor activity (%) *f” value is given as 536% and the “Mean survival time” value turned out to be 37.5 days.
With `CCCCCCCCCCCCCCCCCCOCC(COP(=O)(O)OCCN1CCN(C)CC1)OC(N)=O` (racemic) [Example 4, (rac)-l-O-Octadecyl-2-0-carbamoyl-glycerol-3-[2-(4-methyl-l-piperazinyl)ethyl]phosphate], in the data set with Fibrosarcoma Meth A, the “Anti-tumor activity (%) *f” value is given as 236% and the “Mean survival time” value came to 16.5 days. In addition, in data set [1], the “Body weight of mice (g) Day 4 *e” value stood at 20.2 ± 1.11 g and the “Body weight of mice (g) Day 0 *d” value came to 19.5 ± 0.60 g. Further, in the data set on Fibrosarcoma Meth-A, the “Tumor growth inhibition (%) *b” value came out at 100%, the “Mean tumor size (mm) *a” value turned out to be 0 mm and the “Ratio of tumor free mice *c” value is recorded as 6/6.

Source of the values: patent EP0089635A2, “Phospholipid derivatives, process for preparation thereof and pharmaceutical composition of the same” (FUJISAWA PHARMACEUTICAL CO., LTD., priority 1982, dated 1983).
